Columns and labels:
Assay type in all cases: biochemical
[1] = molecular target: T1, CYP3A4 (Homo sapiens, UniProt P08684); experiment: IC50 against CYP3A4 by inhibition of midazolam metabolism in human liver microsomes; conditions: 0.1 mg/mL human liver microsomes, 2 μM midazolam, 1 mM NADPH, 1-hydroxymidazolam production, eight minutes; read-out: IC50, μM (HLM, midazolam)
T1 construct: 0.1 mg/mL human liver microsomes; from tissue; host or cells: human liver microsomes
Procedure, shortened: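 Human liver microsomes (0.1 mg/mL) incubated 8 min with 2 μM midazolam and 1 mM NADPH in 100 mM potassium phosphate, pH 7.4. 1-Hydroxymidazolam quantified by LC-MS/MS (MRM) as peak area ratio to internal standard against a metabolite standard curve.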

[2] = molecular target: T2, recombinant CYP3A4-b5 enzyme (Baculosomes®) (Homo sapiens, UniProt P08684); experiment: Kiapp against recombinant CYP3A4 enzyme (Baculosomes), BFC substrate; conditions: recombinant CYP3A4-b5 (Invitrogen), 5 uM BFC, 200 uM NADPH, pre-incubation at least 30 minutes, pH 7.0, room temperature
T2 construct: purchased Invitrogen (Carlsbad, Calif.)
Procedure, shortened: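 Recombinant CYP3A4-b5 Baculosomes were run in 100 mM sodium phosphate pH 7.0 with 5 mM TCEP and 2% DMF at room temperature, with ~30 min pre-incubation. The reaction was started with NADPH (200 uM) and BFC (5 uM), both final. Kiapp came from initial fluorescence velocities over the first 5 min across inhibitor concentrations.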

[3] = molecular target: T3, recombinant CYP3A4+b5 enzyme (Supersomes®) (Homo sapiens, UniProt P08684); experiment: Kiapp against recombinant CYP3A4 enzyme (Supersomes), BFC substrate; conditions: recombinant CYP3A4+b5 (BD Biosciences), 5 uM BFC, 200 uM NADPH, pre-incubation at least 30 minutes, pH 7.0, room temperature
T3 construct: purchased BD Biosciences (Woburn, Mass.)
Experimental: 1. Determination of Compound Kiapp
A determination of the Kiapp of the compounds of the invention against recombinant CYP3A4 enzyme was performed as follows. The assay was performed in a 100 mM sodium phosphate buffer pH 7.0, 5 mM TCEP and containing 2% dimethylformamide (final concentration) upon addition of substrate and inhibitor. A typical reaction for the determination of Kiapp values was carried at room temperature in a solid black Costar u-bottom 96-well polypropylene plate. In each well, recombinant CYP3A4 enzyme (5.5 nM or 8 nM, final concentration depending on the commercial source of the enzyme) was pre-incubated in the presence of the inhibitor for at least 30 minutes in the assay buffer. When pre-incubation was completed (˜30 min), the reaction was initiated by adding NADPH (200 uM, final concentration), and 7-benzyloxy-4-(trifluoromethyl)-coumarin (BFC) (5 uM, final concentration). The oxidation of the coumarin substrate was recorded by a 96-well plate reader POLARstar (BMG LABTECH, Offenburg, Germany).
The initial reaction velocities were measured during the first 5 min of the reaction when the release of the fluorescent product is linear with time, in the absence and in the presence of various concentrations of inhibitors. For non-partial & partial inhibitors, the Kiapp values were determined by using the equation for tight-binding inhibitor developed by Morrison, J F (Morrison J F. Biochim Biophys Acta. 1969, 185: 269-86) and by Szedlaseck S E et al. (Szedlascek, S. E., Ostafe, V., Serban, M., and Vlad, M. O. Biochem. J. 1988, 254:311-312), respectively.
The fluorescent substrate BFC was purchased from Sigma (St Louis, Mo.). Two commercial sources of recombinant enzymes were used in this study: recombinant CYP3A4-b5 enzyme (Baculosomes®) was purchased from Invitrogen (Carlsbad, Calif.) and the recombinant CYP3A4+b5 enzyme (Supersomes®) was purchased from BD Biosciences (Woburn, Mass.).

[4] = molecular target: T1, CYP3A4; experiment: IC50 against CYP3A4 by inhibition of testosterone metabolism in human liver microsomes; conditions: 0.1 mg/mL human liver microsomes, 25 μM testosterone, 1 mM NADPH, 6-β-OH-testosterone production, eight minutes; read-out: IC50, μM (HLM, testosterone)
Procedure, shortened: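 Testosterone used as substrate, incubated for eight minutes. 6-β-OH-testosterone formation quantified by LC-MS/MS (MRM) as peak area ratio to internal standard against a metabolite standard curve. IC50 derived from inhibition of this metabolism.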

T3 sequence (P08684 2-503 limits assumed): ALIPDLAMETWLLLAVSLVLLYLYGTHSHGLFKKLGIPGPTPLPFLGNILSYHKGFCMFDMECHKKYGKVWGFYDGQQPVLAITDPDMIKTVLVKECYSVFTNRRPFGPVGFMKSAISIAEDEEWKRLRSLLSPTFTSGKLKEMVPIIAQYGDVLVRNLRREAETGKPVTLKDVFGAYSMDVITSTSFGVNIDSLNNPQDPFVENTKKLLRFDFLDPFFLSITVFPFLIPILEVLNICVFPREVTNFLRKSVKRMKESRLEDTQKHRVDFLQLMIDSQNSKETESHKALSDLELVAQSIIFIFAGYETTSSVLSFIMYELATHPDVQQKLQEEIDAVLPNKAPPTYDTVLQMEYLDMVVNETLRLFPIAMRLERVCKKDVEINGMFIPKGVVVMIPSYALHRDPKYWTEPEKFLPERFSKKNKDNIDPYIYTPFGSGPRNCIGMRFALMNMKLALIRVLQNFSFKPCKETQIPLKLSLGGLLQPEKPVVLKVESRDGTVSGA
T1 sequence (P08684 whole entry): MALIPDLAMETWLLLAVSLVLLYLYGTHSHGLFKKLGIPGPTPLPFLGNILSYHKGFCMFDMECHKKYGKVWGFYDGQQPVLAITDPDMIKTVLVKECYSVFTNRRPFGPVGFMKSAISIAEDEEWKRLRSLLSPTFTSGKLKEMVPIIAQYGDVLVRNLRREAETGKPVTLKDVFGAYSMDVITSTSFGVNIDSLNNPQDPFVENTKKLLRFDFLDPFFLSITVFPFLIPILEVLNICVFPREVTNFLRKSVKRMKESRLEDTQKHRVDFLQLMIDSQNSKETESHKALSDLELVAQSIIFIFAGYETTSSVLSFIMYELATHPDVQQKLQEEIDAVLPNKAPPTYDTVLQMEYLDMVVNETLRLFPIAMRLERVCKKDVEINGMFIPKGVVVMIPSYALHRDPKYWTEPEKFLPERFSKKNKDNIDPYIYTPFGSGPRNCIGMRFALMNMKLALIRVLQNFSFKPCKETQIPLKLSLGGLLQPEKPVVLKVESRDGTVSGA
T2 sequence (P08684 whole entry): as above

Compound | IC50 [1] | Ki [2] | Ki [3] | IC50 [4]
CNC(=O)NC1CN(C(=O)Cn2nc(-c3ccncc3)cc2Cc2ccc(F)cc2)C1 [Example 126, 1-(1-{[5-(4-fluorobenzyl)-3-pyridin-4-yl-1H-pyrazol-1-yl]acetyl}azetidin-3-yl)-3-methylurea] | 0.034 µM | 0.196 µM | 0.031 µM | 0.059 µM
CS(=O)(=O)C1CCN(C(=O)Cn2nc(-c3ccncc3)cc2Cc2ccc(F)cc2)CC1 [Example 6, 4-(5-(4-fluorobenzyl)-1-{2-[4-(methylsulfonyl)piperidin-1-yl]-2-oxoethyl}-1H-pyrazol-3-yl)pyridine] | 0.0218 µM | 0.0237 µM | 0.0118 µM | 0.024 µM
CC(C)(CN1CCOCC1)NC(=O)Cn1nc(-c2c[nH]nn2)cc1Cc1ccc(F)cc1 [Example 50, N-(1,1-dimethyl-2-morpholin-4-ylethyl)-2-[5-(4-fluorobenzyl)-3-(1H-1,2,3-triazol-4-yl)-1H-pyrazol-1-yl]acetamide] | 0.132 µM | 0.729 µM | 0.389 µM | 0.168 µM
O=C(Cn1nc(-c2ccncc2)cc1Cc1ccc(F)cc1)NC1CCS(=O)(=O)C1 (stereo not drawn) [Example 93, N-(1,1-dioxidotetrahydro-3-thienyl)-2-[5-(4-fluorobenzyl)-3-pyridin-4-yl-1H-pyrazol-1-yl]acetamide] | 0.014 µM | 0.0134 µM | 0.0039 µM | 0.007 µM
CN(C(=O)Cn1nc(-c2c[nH]cn2)cc1Cc1ccc(F)cc1)[C@H]1CC[C@H](O)CC1 [Example 123, 2-[5-(4-fluorobenzyl)-3-(1H-imidazol-4-yl)-1H-pyrazol-1-yl]-N-(trans-4-hydroxycyclohexyl)-N-methylacetamide] | 0.397 µM | 0.459 µM | 0.167 µM | 0.554 µM
COC(=O)N[C@H]1CCN(C(=O)Cn2nc(-c3ccncc3)cc2Cc2ccc(F)cc2)C1 [Example 130, methyl [(3S)-1-{[5-(4-fluorobenzyl)-3-pyridin-4-yl-1H-pyrazol-1-yl]acetyl}pyrrolidin-3-yl]carbamate] | 0.015 µM | 0.0276 µM | 0.00618 µM | 0.032 µM
CS(=O)(=O)NC1CCN(C(=O)Cn2nc(-c3ccncc3)cc2Cc2ccc(F)cc2)CC1 [Example 19, N-(1-{2-[5-(4-fluorobenzyl)-3-pyridin-4-yl-1H-pyrazol-1-yl]acetyl}piperidin-4-yl)methanesulfonamide] | 0.0138 µM | 0.128 µM | 0.0057 µM | 0.033 µM
CNC(=O)N(C)C1CCN(C(=O)Cn2nc(-c3ccncc3)cc2Cc2ccc(F)cc2)C1 (stereo not drawn) [Example 129, 1-(1-{[5-(4-fluorobenzyl)-3-pyridin-4-yl-1H-pyrazol-1-yl]acetyl}pyrrolidin-3-yl)-1,3-dimethylurea] | 0.022 µM | 0.312 µM | 0.017 µM | 0.066 µM
CC(=O)N(C)C1CCN(C(=O)Cn2nc(-c3c[nH]cn3)cc2Cc2ccc(F)cc2)CC1 [Example 122, N-(1-{[5-(4-fluorobenzyl)-3-(1H-imidazol-4-yl)-1H-pyrazol-1-yl]acetyl}piperidin-4-yl)-N-methylacetamide] | 0.62 µM | 0.482 µM | 0.178 µM | > 0.75 µM
CN(C)[C@H]1CCN(C(=O)Cn2nc(-c3ccncc3)cc2Cc2ccc(F)cc2)C1 [Example 73, (3S)-1-{[5-(4-fluorobenzyl)-3-pyridin-4-yl-1H-pyrazol-1-yl]acetyl}-N,N-dimethylpyrrolidin-3-amine] | 0.018 µM | 0.211 µM | 0.0339 µM | 0.0435 µM
CC(=O)N[C@@H]1CCN(C(=O)Cn2nc(-c3ccncc3)cc2Cc2ccc(F)cc2)C1 [Example 100, N-[(3R)-1-{2-[5-(4-fluorobenzyl)-3-pyridin-4-yl-1H-pyrazol-1-yl]acetyl}pyrrolidin-3-yl]acetamide] | 0.044 µM | 0.298 µM | 0.0225 µM | 0.0845 µM
CC(=O)N1CCN(C(=O)Cn2nc(-c3ccncc3)cc2Cc2ccc(F)cc2)CC1 [Example 134, 1-acetyl-4-{[5-(4-fluorobenzyl)-3-pyridin-4-yl-1H-pyrazol-1-yl]acetyl}piperazine] | 0.0169 µM | 0.131 µM | 0.0168 µM | 0.051 µM
COC(=O)N(C)C1CCN(C(=O)Cn2nc(-c3ccncc3)cc2Cc2ccc(F)cc2)C1 (stereo not drawn) [Example 128, methyl (1-{[5-(4-fluorobenzyl)-3-pyridin-4-yl-1H-pyrazol-1-yl]acetyl}pyrrolidin-3-yl)methylcarbamate] | 0.022 µM | 0.0488 µM | 0.00507 µM | 0.026 µM
CC(=O)NC1CN(C(=O)Cn2nc(-c3ccncc3)cc2Cc2ccc(F)cc2)C1 [Example 127, N-(1-{2-[5-(4-fluorobenzyl)-3-pyridin-4-yl-1H-pyrazol-1-yl]acetyl}azetidin-3-yl)acetamide] | 0.041 µM | 0.141 µM | 0.0191 µM | 0.08 µM
CN(C(=O)Cn1nc(-c2ccncc2)cc1Cc1ccc(F)cc1)[C@H]1CC[C@@H](O)CC1 [Example 135, 2-[5-(4-fluorobenzyl)-3-pyridin-4-yl-1H-pyrazol-1-yl]-N-(cis-4-hydroxycyclohexyl)-N-methylacetamide] | 0.00867 µM | 0.108 µM | 0.0358 µM | 0.021 µM
COC(=O)NC1CN(C(=O)Cn2nc(-c3ccncc3)cc2Cc2ccc(F)cc2)C1 [Example 124, methyl (1-{[5-(4-fluorobenzyl)-3-pyridin-4-yl-1H-pyrazol-1-yl]acetyl}azetidin-3-yl)carbamate] | 0.025 µM | 0.123 µM | 0.0147 µM | 0.032 µM
O=C(Cn1nc(-c2ccncc2)cc1Cc1ccc(F)cc1)N1CCC(N2CCCS2(=O)=O)CC1 [Example 120, 4-[1-{2-[4-(1,1-dioxidoisothiazolidin-2-yl)piperidin-1-yl]-2-oxoethyl}-5-(4-fluorobenzyl)-1H-pyrazol-3-yl]pyridine] | 0.017 µM | 0.003 µM | 0.0068 µM | 0.027 µM
CC(=O)N(C)C1CCN(C(=O)Cn2nc(-c3ccncc3)cc2Cc2ccc(F)cc2)C1 (stereo not drawn) [Example 99, N-(1-{[5-(4-fluorobenzyl)-3-pyridin-4-yl-1H-pyrazol-1-yl]acetyl}pyrrolidin-3-yl)-N-methylacetamide] | 0.032 µM | 0.248 µM | 0.0178 µM | 0.064 µM
CC(C)NC(=O)N(C)C1CCN(C(=O)Cn2nc(-c3ccncc3)cc2Cc2ccc(F)cc2)CC1 [Example 16, N-(1-{[5-(4-fluorobenzyl)-3-pyridin-4-yl-1H-pyrazol-1-yl]acetyl}piperidin-4-yl)-N′-isopropyl-N-methylurea] | 0.00707 µM | 0.0369 µM | 0.0139 µM | 0.016 µM
CC(C)(CN1CCOCC1)NC(=O)Cn1nc(-c2ccnnc2)cc1Cc1ccc(F)cc1 [Example 133, N-(1,1-dimethyl-2-morpholin-4-ylethyl)-2-[5-(4-fluorobenzyl)-3-pyridazin-4-yl-1H-pyrazol-1-yl]acetamide] | 0.083 µM | 0.21 µM | 0.174 µM | 0.044 µM
CS(=O)(=O)NC1CN(C(=O)Cn2nc(-c3ccncc3)cc2Cc2ccc(F)cc2)C1 [Example 125, N-(1-{2-[5-(4-fluorobenzyl)-3-pyridin-4-yl-1H-pyrazol-1-yl]acetyl}azetidin-3-yl)methanesulfonamide] | 0.022 µM | 0.0666 µM | 0.00884 µM | 0.027 µM

Reference: US7919488B2, “Therapeutic compounds” (Pfizer Inc., priority 2006, dated 2011)
